Source: patent publication US10640495B2, “Heterocycle derivatives having TrkA inhibitory activity” (Shionogi & Co., Ltd., priority 2015, dated 2020)

Each molecule was assayed against human TrkA (Homo sapiens (Human), UniProt P04629) (assay: Human TrkA inhibition assay (Test Example 2)). Details: Table 155, human TrkA inhibition; read-out: IC50.
Type: biochemical
Outline: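 Recombinant TrkA (1 nmol/L) was preincubated 15 min at room temperature with compound in HEPES/MgCl2/DTT buffer, then reacted with FL-peptide 27 (1.5 μmol/L) and ATP (500 μmol/L) for 120 min at 37 °C. After EDTA stop, substrate phosphorylation was read by microfluidic mobility shift. IC50 came from logistic regression over 3-fold dilution series.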

human TrkA, sequence (P04629 440-796): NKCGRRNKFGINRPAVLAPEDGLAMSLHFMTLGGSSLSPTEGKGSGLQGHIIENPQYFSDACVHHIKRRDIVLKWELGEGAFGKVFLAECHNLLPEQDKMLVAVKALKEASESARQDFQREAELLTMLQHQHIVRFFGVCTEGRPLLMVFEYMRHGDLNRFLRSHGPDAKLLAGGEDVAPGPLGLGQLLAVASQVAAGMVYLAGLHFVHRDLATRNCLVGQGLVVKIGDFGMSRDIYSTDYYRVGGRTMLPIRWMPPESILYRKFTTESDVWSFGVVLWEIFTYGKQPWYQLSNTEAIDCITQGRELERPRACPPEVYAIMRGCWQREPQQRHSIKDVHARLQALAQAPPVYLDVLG

IC50 [nM]	SMILES
< 100	COCCN1C[C@@H](NC(=O)Nc2c(C)c(-c3cnc4c(c3)CN(C)C4=O)nn2-c2ccccc2)[C@H](c2ccc(F)cc2)O1 [Compound I-411]
< 100	COCCN1C[C@@H](NC(=O)Nc2c(C)c(-c3cnc4c(cnn4C)c3)nn2-c2ccccc2)[C@H](c2cnc(F)c(F)c2)O1 [Compound I-417]
< 100	COCCN1C[C@@H](NC(=O)Nc2c(C)c(-c3cnc(N4CC5(COC5)C4)nc3)nn2-c2ccccc2)[C@H](c2cnc(F)c(F)c2)O1 [Compound I-430]
< 100	COCCN1C[C@@H](NC(=O)Nc2c(C)c(-c3cnn(C)c3)nn2-c2ccccn2)[C@H](c2ccc(F)c(F)c2)O1 [Compound I-447]
< 100	COCCN1C[C@@H](NC(=O)Nc2c(C)c(-c3cccnc3)nn2-c2ccccc2)[C@H](c2ccc(F)c(F)c2)O1 [Compound I-449]
< 100	COCCN1C[C@@H](NC(=O)Nc2c(C)c(-c3cccc(N(C)C)c3)nn2-c2ccccc2)[C@H](c2ccc(F)c(F)c2)O1 [Compound I-450]
< 100	COCCN1C[C@@H](NC(=O)Nc2c(C)c(-c3ccc4nc(CO)cn4c3)nn2-c2ccccc2)[C@H](c2ccc(F)c(F)c2)O1 [Compound I-451]
< 100	COCCN1C[C@@H](NC(=O)Nc2c(C)c(-c3ccc4nccn4c3)nn2-c2ccccc2)[C@H](c2ccc(F)c(F)c2)O1 [Compound I-460]
< 100	COCCN1C[C@@H](NC(=O)Nc2c(C)c(-c3ccn4ccnc4c3)nn2-c2ccccc2)[C@H](c2ccc(F)c(F)c2)O1 [Compound I-461]
< 100	COCCN1C[C@@H](NC(=O)Nc2c(C)c(-c3cnc4c(c3)OCCO4)nn2-c2ccccc2)[C@H](c2ccc(F)c(F)c2)O1 [Compound I-463]
< 100	COCCN1C[C@@H](NC(=O)Nc2c(C)c(-c3cnc(OC4CCN(C)CC4)nc3)nn2-c2ccccc2)[C@H](c2ccc(F)c(F)c2)O1 [Compound I-464]
< 100	COCCN1C[C@@H](NC(=O)Nc2c(C)c(-c3ccncc3)nn2-c2ccccc2)[C@H](c2ccc(F)c(F)c2)O1 [Compound I-466]
< 100	COCCN1C[C@@H](NC(=O)Nc2c(C)c(-c3cnc4c(cnn4C)c3)nn2-c2ccccc2)[C@H](c2ccc(F)c(F)c2)O1 [Compound I-473]
< 100	COCCN1C[C@@H](NC(=O)Nc2c(C)c(-c3cnc(N4CCN(C(=O)OCc5ccccc5)CC4)nc3)nn2-c2ccccc2)[C@H](c2ccc(F)c(F)c2)O1 [Compound I-475]
> 1000	COCCN1C[C@@H](NC(=O)Nc2c(C)c(-c3cnn(C)c3)nn2Cc2ccccc2)[C@H](c2ccc(F)c(F)c2)O1 [Compound I-492]
> 1000	COCCN1C[C@@H](NC(=O)Nc2c(C)c(-c3cnn(C)c3)nn2CCO)[C@H](c2ccc(F)c(F)c2)O1 [Compound I-493]
> 1000	COCCN1C[C@@H](NC(=O)Nc2c(C)c(-c3cnn(C)c3)nn2CCN(C)C)[C@H](c2ccc(F)c(F)c2)O1 [Compound I-494]
< 100	COCCN1C[C@@H](NC(=O)Nc2c(C)c(-c3ccn(C)c(=O)c3)nn2-c2ccccc2)[C@H](c2ccc(F)c(F)c2)O1 [Compound I-497]
< 100	COCCN1C[C@@H](NC(=O)Nc2c(C)c(-c3ccc(=O)n(C)c3)nn2-c2ccccc2)[C@H](c2ccc(F)c(F)c2)O1 [Compound I-498]
< 100	COCCN1C[C@@H](NC(=O)Nc2c(C)c(OCC3CN(C(=O)OC(C)(C)C)CCO3)nn2-c2ccccc2)[C@H](c2ccnc(F)c2)O1 (stereo partly drawn) [Compound I-499]
< 100	COCCN1C[C@@H](NC(=O)Nc2c(C)c(OCC3CNCCO3)nn2-c2ccccc2)[C@H](c2ccnc(F)c2)O1 (stereo partly drawn) [Compound I-500]
< 100	COCCN1C[C@@H](NC(=O)Nc2c(C)c(OCC3CN(C(C)=O)CCO3)nn2-c2ccccc2)[C@H](c2ccnc(F)c2)O1 (stereo partly drawn) [Compound I-504]
< 100	COCCN1C[C@@H](NC(=O)Nc2c(C)c(OCC3CN(C)CCO3)nn2-c2ccccc2)[C@H](c2ccnc(F)c2)O1 (stereo partly drawn) [Compound I-505]
< 100	COCCN1C[C@@H](NC(=O)Nc2c(C)c(-c3cnn(C)c3)nn2-c2cccc(F)c2)[C@H](c2ccc(F)c(F)c2)O1 [Compound I-510]
< 100	COCCN1C[C@@H](NC(=O)Nc2c(C)c(-c3cnc(COC)nc3)nn2-c2ccccc2)[C@H](c2cnc(F)c(F)c2)O1 [Compound I-512]

Same assay, conditions: Table 156, human TrkA inhibition; read-out: IC50

IC50 [nM]	SMILES
< 100	COCCN1C[C@@H](NC(=O)Nc2c(C)c(-c3ccc(OC)nc3)nn2-c2ccccc2)[C@H](c2ccc(F)c(F)c2)O1 [Compound I-516]
< 100	COCCN1C[C@@H](NC(=O)Nc2c(C)c(C)nn2-c2ccccc2)[C@H](c2ccc(F)c(F)c2)O1 [Compound I-518]
< 100	CCOc1nn(-c2ccccc2)c(NC(=O)N[C@@H]2CN(CCOC)O[C@H]2c2ccc(F)c(F)c2)c1C [Compound I-519]
< 100	COCCN1C[C@@H](NC(=O)Nc2c(C)c(C)nn2-c2ccccc2)[C@H](c2cnc(F)c(F)c2)O1 [Compound I-520]
< 100	COCCN1C[C@@H](NC(=O)Nc2c(C)c(C)nn2-c2ccccc2)[C@H](c2ccnc(F)c2)O1 [Compound I-521]
< 100	COCCN1C[C@@H](NC(=O)Nc2c(C)c(-c3ccc(COC(C)=O)nc3)nn2-c2ccccc2)[C@H](c2ccc(F)c(F)c2)O1 [Compound I-531]
< 100	COCCN1C[C@@H](NC(=O)Nc2c(C)c(-c3ccc(CO)nc3)nn2-c2ccccc2)[C@H](c2ccc(F)c(F)c2)O1 [Compound I-533]
> 1000	CCN1C[C@H](NC(=O)Nc2c(C)c(OCC3CCN(C)CC3)nn2-c2ccccc2)[C@@H](c2ccc(F)c(F)c2)O1 [Compound I-535]
< 100	CCN1C[C@@H](NC(=O)Nc2c(C)c(OCC3CNCCO3)nn2-c2ccccc2)[C@H](c2ccc(F)c(F)c2)O1 (stereo partly drawn) [Compound I-537]
< 100	CCN1C[C@@H](NC(=O)Nc2c(C)c(OCC3CN(C(C)=O)CCO3)nn2-c2ccccc2)[C@H](c2ccc(F)c(F)c2)O1 (stereo partly drawn) [Compound I-546]
< 100	CCN1C[C@@H](NC(=O)Nc2c(C)c(OCC3CN(C)CCO3)nn2-c2ccccc2)[C@H](c2ccc(F)c(F)c2)O1 (stereo partly drawn) [Compound I-548]
< 100	COCC[C@@H]1C[C@@H](NC(=O)Nc2c(C)c(-c3cnc(N4CC(OC)C4)nc3)nn2-c2ccccc2)[C@H](c2ccnc(F)c2)O1 [Compound I-553]
< 100	COCCN1C[C@@H](NC(=O)Nc2c(C)c(-c3ccc(C)nc3)nn2-c2ccccc2)[C@H](c2ccc(F)c(F)c2)O1 [Compound I-556]
< 100	COCCN1C[C@@H](NC(=O)Nc2c(C)c(-c3ccnc(C(=O)OC)c3)nn2-c2ccccc2)[C@H](c2ccc(F)c(F)c2)O1 [Compound I-557]
< 100	COCCN1C[C@@H](NC(=O)Nc2c(C)c(-c3ccc(N4CC(OC)C4)nc3)nn2-c2ccccc2)[C@H](c2ccc(F)c(F)c2)O1 [Compound I-558]
< 100	COCCN1C[C@@H](NC(=O)Nc2c(C)c(OCCN(C)C)nn2-c2ccccc2)[C@H](c2ccc(F)c(F)c2)O1 [Compound I-572]
< 100	COCCN1C[C@@H](NC(=O)Nc2c(C)c(OC3CN(C(=O)OC(C)(C)C)C3)nn2-c2ccccc2)[C@H](c2ccc(F)c(F)c2)O1 [Compound I-573]
< 100	COCCN1C[C@@H](NC(=O)Nc2c(C)c(OC3CNC3)nn2-c2ccccc2)[C@H](c2ccc(F)c(F)c2)O1 [Compound I-574]
< 100	COCCN1C[C@@H](NC(=O)Nc2c(C)c(OCC3CN(C)CCO3)nn2-c2ccccc2)[C@H](c2ccc(F)c(F)c2)O1 (stereo partly drawn) [Compound I-580]

SMILES	IC50 [nM]
COCCN1C[C@@H](NC(=O)Nc2c(C)c(-c3cnc(N4CC5CC(C4)O5)nc3)nn2-c2ccccc2)[C@H](c2cnc(F)c(F)c2)O1 [Compound I-514]	< 100

Same assay, conditions: Table 157, human TrkA inhibition; read-out: IC50

IC50 [nM]	SMILES
< 100	COCCN1C[C@@H](NC(=O)Nc2c(C)c(-c3cnc(N4CC[C@H](OC)C4)nc3)nn2-c2ccccc2)[C@H](c2ccnc(F)c2)O1 [Compound I-584]
< 100	COCCN1C[C@@H](NC(=O)Nc2c(C)c(-c3cnc(N4CC[C@@H](OC)C4)nc3)nn2-c2ccccc2)[C@H](c2ccnc(F)c2)O1 [Compound I-585]
< 100	COCCN1C[C@@H](NC(=O)Nc2c(C)c(-c3cnc(N4CC[C@H](N(C)C)C4)nc3)nn2-c2ccccc2)[C@H](c2ccnc(F)c2)O1 [Compound I-586]
< 100	COCCN1C[C@@H](NC(=O)Nc2c(C)c(-c3cnc(N4CC[C@@H](N(C)C)C4)nc3)nn2-c2ccccc2)[C@H](c2ccnc(F)c2)O1 [Compound I-587]
< 100	COCCN1C[C@@H](NC(=O)Nc2c(C)c(-c3cnc(N4C[C@H]5C[C@@H]4CO5)nc3)nn2-c2ccccc2)[C@H](c2ccnc(F)c2)O1 [Compound I-590]
< 100	COCCN1C[C@@H](NC(=O)Nc2c(C)c(-c3cnc(N4C[C@@H]5C[C@H]4CO5)nc3)nn2-c2ccccc2)[C@H](c2ccnc(F)c2)O1 [Compound I-591]

Same assay, conditions: human TrkA 1 nmol/L, ATP 500 μmol/L, 120 min at 37° C.; read-out: IC50 values (TrkA phosphorylation inhibition)

SMILES	IC50 [nM]
CNC(=O)c1ccc(-c2nn(-c3ccccc3)c(NC(=O)N[C@@H]3CN(CCOC)O[C@H]3c3ccc(F)c(F)c3)c2C)cn1 [Compound I-458]	0.52
COCCN1C[C@@H](NC(=O)Nc2c(C)c(-c3cnc(COC)nc3)nn2-c2ccccc2)[C@H](c2ccc(F)c(F)c2)O1 [Compound I-508]	1.1
COCCN1C[C@@H](NC(=O)Nc2c(C)c(-c3ccc(OC)nc3)nn2-c2ccccc2)[C@H](c2ccnc(F)c2)O1 [Compound I-509]	1.3

Results, then the molecule that gave them:

IC50 [nM]	SMILES
4	CCN1C[C@@H](NC(=O)Nc2c(C)c(OCC3CCN(C)CC3)nn2-c2ccccc2)[C@H](c2ccc(F)c(F)c2)O1 [Compound I-536]
1.7	COCCN1C[C@@H](NC(=O)Nc2c(C)c(OCCCN(C)C)nn2-c2ccccc2)[C@H](c2ccc(F)c(F)c2)O1 [Compound I-552]
0.93	COCCN1C[C@@H](NC(=O)Nc2c(C)c(-c3cnc(N4CC(OC)C4)nc3)nn2-c2ccccc2)[C@H](c2ccnc(F)c2)O1 [Compound I-555]
